In article PMC11822212, “High-throughput screening identifies Aurora kinase B as a critical therapeutic target for Merkel cell carcinoma” (Nature Communications, 2025):
Several values for one entry are separate records, joined by “and”; a condition that tells them apart may be missing. Equal entries are not always repeated. Where two headings read alike, the source gives them in different places.

Legend:
Test in all cases: qHTS cell viability (CellTiter-Glo, 72 h; primary and follow-up small molecule screen)
Type in all cases: cell-based, human
[1] = test system: MCC13 cells (VN-MCC)
[2] = test system: MKL-2 cells (VP-MCC)
[3] = test system: UISO cells (VN-MCC)
[4] = test system: MCC26 cells (VN-MCC)
[5] = test system: MKL-1 cells (VP-MCC)
[6] = test system: WAGA cells (VP-MCC)
[7] = follow-up screen, MCC13, replicate 1
[8] = follow-up screen, MCC13, replicate 2
[9] = follow-up screen, MCC13, replicate 3
[10] = follow-up screen, MKL-2, replicate 1
[11] = follow-up screen, MKL-2, replicate 2
[12] = follow-up screen, MKL-2, replicate 3
[13] = follow-up screen, UISO, replicate 1
[14] = follow-up screen, UISO, replicate 2
[15] = follow-up screen, UISO, replicate 3
[16] = follow-up screen, MCC26, replicate 1
[17] = follow-up screen, MCC26, replicate 2
[18] = follow-up screen, MCC26, replicate 3
[19] = follow-up screen, MKL-1, replicate 1
[20] = follow-up screen, MKL-1, replicate 2
[21] = follow-up screen, MKL-1, replicate 3
[22] = follow-up screen, WAGA, replicate 1
[23] = follow-up screen, WAGA, replicate 2
[24] = follow-up screen, WAGA, replicate 3

SMILES | Area under the dose-response curve (AUC) MCC13 Replicate 1 [1, 7] | Area under the dose-response curve (AUC) MCC13 Replicate 2 [1, 8] | Area under the dose-response curve (AUC) MCC13 Replicate 3 [1, 9] | Area under the dose-response curve (AUC) MKL-2 Replicate 1 [2, 10] | Area under the dose-response curve (AUC) MKL-2 Replicate 2 [2, 11] | Area under the dose-response curve (AUC) MKL-2 Replicate 3 [2, 12] | Area under the dose-response curve (AUC) UISO Replicate 1 [3, 13] | Area under the dose-response curve (AUC) UISO Replicate 2 [3, 14] | Area under the dose-response curve (AUC) UISO Replicate 3 [3, 15] | Area under the dose-response curve (AUC) MCC26 Replicate 1 [4, 16] | Area under the dose-response curve (AUC) MCC26 Replicate 2 [4, 17] | Area under the dose-response curve (AUC) MCC26 Replicate 3 [4, 18] | Area under the dose-response curve (AUC) MKL-1 Replicate 1 [5, 19] | Area under the dose-response curve (AUC) MKL-1 Replicate 2 [5, 20] | Area under the dose-response curve (AUC) MKL-1 Replicate 3 [5, 21] | Area under the dose-response curve (AUC) WAGA Replicate 1 [6, 22] | Area under the dose-response curve (AUC) WAGA Replicate 2 [6, 23] | Area under the dose-response curve (AUC) WAGA Replicate 3 [6, 24] | also measured
CN[C@@H]1[C@H](O)[C@H](NC)[C@H]2O[C@@]3(O)C(=O)C[C@@H](C)O[C@H]3O[C@@H]2[C@H]1O.Cl.Cl.O.O.O.O.O [Spectinomycin hydrochloride] | 504.6 | 484.6 | 486.4 | 495.5 | 540.4 | 501.9 | 480.2 | 491.5 | 485.2 | 469.4 | 428.8 | 486.9 | 495.1 | 464.4 | 515.8 | 531.5 | 530.5 | 510.1 | 
COc1cc(O)c2c(c1)oc(=O)c1c3cc(O)c(O)cc3oc21 [WEDELOLACTONE] |  |  |  |  |  |  |  |  |  |  |  |  |  |  |  |  |  |  | Area under the dose-response curve (AUC) MCC13 Replicate 1 [1]: 452.7; Area under the dose-response curve (AUC) MCC13 Replicate 2 [1]: 445.8; Area under the dose-response curve (AUC) MCC13 Replicate 3 [1]: 440.3; Area under the dose-response curve (AUC) MKL-2 Replicate 1 [2]: 426.5; Area under the dose-response curve (AUC) MKL-2 Replicate 2 [2]: 409.5; Area under the dose-response curve (AUC) MKL-2 Replicate 3 [2]: 433.4; Area under the dose-response curve (AUC) UISO Replicate 1 [3]: 275.6; Area under the dose-response curve (AUC) UISO Replicate 2 [3]: 271.0; Area under the dose-response curve (AUC) UISO Replicate 3 [3]: 228.5; Area under the dose-response curve (AUC) MCC26 Replicate 1 [4]: 436.4; Area under the dose-response curve (AUC) MCC26 Replicate 2 [4]: 432.2; Area under the dose-response curve (AUC) MCC26 Replicate 3 [4]: 441.9; Area under the dose-response curve (AUC) MKL-1 Replicate 1 [5]: 490.5; Area under the dose-response curve (AUC) MKL-1 Replicate 2 [5]: 454.4; Area under the dose-response curve (AUC) MKL-1 Replicate 3 [5]: 448.6; Area under the dose-response curve (AUC) WAGA Replicate 1 [6]: 442.4; Area under the dose-response curve (AUC) WAGA Replicate 2 [6]: 419.0; Area under the dose-response curve (AUC) WAGA Replicate 3 [6]: 421.6
Cc1nc2ccc(-n3ncc(C(=O)c4cc5ccccc5[nH]4)c3N)cc2[nH]1 [CH5183284 (Debio-1347)] |  |  |  |  |  |  |  |  |  |  |  |  |  |  |  |  |  |  | Area under the dose-response curve (AUC) [1]: 509.3 and 491.7 and 491.1; Area under the dose-response curve (AUC) [2]: 485.9 and 459.2 and 468.2; Area under the dose-response curve (AUC) [3]: 433.7 and 424.4 and 430.0; Area under the dose-response curve (AUC) [4]: 405.6 and 395.0 and 403.7; Area under the dose-response curve (AUC) [5]: 508.7 and 488.2 and 500.7; Area under the dose-response curve (AUC) [6]: 493.1 and 498.3 and 457.6
Fc1ccc2[nH]ccc2c1-c1nc(N2CCOCC2)c2sc(CN3CCN(CC4CC4)CC3)cc2n1 [PI-3065] |  |  |  |  |  |  |  |  |  |  |  |  |  |  |  |  |  |  | Area under the dose-response curve (AUC) [1]: 491.4 and 471.7 and 470.9; Area under the dose-response curve (AUC) [2]: 468.3 and 439.3 and 471.2; Area under the dose-response curve (AUC) [3]: 477.0 and 474.8 and 437.8; Area under the dose-response curve (AUC) [4]: 439.2 and 434.6 and 464.1; Area under the dose-response curve (AUC) [5]: 492.3 and 479.8 and 465.2; Area under the dose-response curve (AUC) [6]: 514.3 and 478.8 and 484.1
CO[C@H]1/C=C/O[C@@]2(C)Oc3c(C)c(O)c4c(O)c(c(/C=N/N5CCN(C6CCCC6)CC5)c(O)c4c3C2=O)NC(=O)/C(C)=C\C=C\[C@H](C)[C@H](O)[C@@H](C)[C@@H](O)[C@@H](C)[C@H](OC(C)=O)[C@@H]1C [Rifapentine] | 505.1 | 494.8 | 490.8 | 477.3 | 488.3 | 494.1 | 475.3 | 482.1 | 453.0 | 454.9 | 422.8 | 488.5 | 466.1 | 446.1 | 500.1 | 525.4 | 514.7 | 508.3 | 
Cc1cc(Nc2ncc3c(n2)N(C)C(=O)N(c2cc(NC(=O)c4cccc(C(F)(F)F)c4)ccc2C)C3)n(C)n1 [Pluripotin] | 368.1 | 352.7 | 330.6 | 435.4 | 458.3 | 471.4 | 341.8 | 376.4 | 360.3 | 306.5 | 289.3 | 278.9 | 453.5 | 477.1 | 466.2 | 419.3 | 439.3 | 440.2 | 
CN(C)c1ccc(C(=C2C=CC(=[N+](C)C)C=C2)c2ccc(N(C)C)cc2)cc1.[Cl-] [Methylrosaniline chloride] |  |  |  |  |  |  |  |  |  |  |  |  |  |  |  |  |  |  | Area under the dose-response curve (AUC) MCC13 Replicate 1 [1]: 337.3; Area under the dose-response curve (AUC) MCC13 Replicate 2 [1]: 353.3; Area under the dose-response curve (AUC) MCC13 Replicate 3 [1]: 322.2; Area under the dose-response curve (AUC) MKL-2 Replicate 1 [2]: 279.9; Area under the dose-response curve (AUC) MKL-2 Replicate 2 [2]: 290.8; Area under the dose-response curve (AUC) MKL-2 Replicate 3 [2]: 309.2; Area under the dose-response curve (AUC) UISO Replicate 1 [3]: 320.8; Area under the dose-response curve (AUC) UISO Replicate 2 [3]: 340.7; Area under the dose-response curve (AUC) UISO Replicate 3 [3]: 296.1; Area under the dose-response curve (AUC) MCC26 Replicate 1 [4]: 379.4; Area under the dose-response curve (AUC) MCC26 Replicate 2 [4]: 341.7; Area under the dose-response curve (AUC) MCC26 Replicate 3 [4]: 374.7; Area under the dose-response curve (AUC) MKL-1 Replicate 1 [5]: 316.1; Area under the dose-response curve (AUC) MKL-1 Replicate 2 [5]: 287.7; Area under the dose-response curve (AUC) MKL-1 Replicate 3 [5]: 301.6; Area under the dose-response curve (AUC) WAGA Replicate 1 [6]: 370.0; Area under the dose-response curve (AUC) WAGA Replicate 2 [6]: 348.5; Area under the dose-response curve (AUC) WAGA Replicate 3 [6]: 356.4
CCN(CC)C(=S)SSC(=S)N(CC)CC [Disulfiram] | 436.7 | 415.1 | 342.5 | 243.8 | 235.0 | 298.1 | 247.9 | 258.4 | 254.5 | 398.0 | 401.3 | 322.7 | 287.1 | 274.6 | 256.7 | 389.6 | 433.6 | 454.9 | 
